Source: ChEMBL document CHEMBL1156467, “Inhibition of GLI-mediated transcription and tumor cell growth by small-molecule antagonists” (Proc Natl Acad Sci U S A, 2007)
Active and inactive are the calls of the source. The rule behind the calls is not given here.

Legend:
[1] = Reduction in expression of Hedgehog target gene Gli1 in Sufu deficient mouse embryonic fibroblast; format: functional
[2] = Antiproliferative activity against Ptch deficient mouse embryonic fibroblast at 10 uM by BrdU incorporation; format: functional
MEF = experiment: Reduction in expression of Hedgehog target gene Hip1 in Sufu deficient mouse MEF cells; format: functional, cell-based
Mus musculus [3] = species on record: Mus musculus; experiment: Reduction of Gil1 mRNA levels at 10 uM in Ptch deficient mouse embryonic fibroblast; format: functional
Mus musculus [4] = species on record: Mus musculus; experiment: Reduction of Ptch1-lacZ level in mouse embryonic fibroblast by luminometric assay; format: functional
[5] = Reduction of expression of PTCH mRNA in human 22Rv cells; format: functional, cell-based
HEK293 [6] = experiment: Inhibition of beta galactosidase in HEK293 cells; format: cell-based; details: Homo sapiens
[7] = Inhibition of Hedgehog signaling in […] Shh-L2 cells; format: functional, cell-based
Jurkat [8] = experiment: Induction of apoptosis in human Jurkat cells assessed as caspase3/7 cleavage by luminometric assay; format: functional, cell-based
CWR22R = experiment: Induction of apoptosis in human 22Rv1 cells assessed as caspase3/7 cleavage by luminometric assay; format: functional, cell-based
PANC-1 [9] = experiment: Inhibition of Gli1 dependent growth of human PANC1 cells at 5 uM; format: functional; design: scale not given: the % may be the effect or the level left
PANC-1 [10] = experiment: Reduction in PTCH expression in human PANC1 cells at 5 uM; format: functional, cell-based
[11] = Reduction in PTCH expression in human 22Rv cells at 5 uM; format: functional, cell-based
NIH3T3 [12] = experiment: Inhibition of Hedgehog/Gli1 mediated transformation in mouse NIH3T3 cells at 10 uM; format: functional, cell-based
HEK293 [13] = experiment: Inhibition of nuclear accumulation of GLI mutant in HEK293 cells; format: functional, cell-based; details: Homo sapiens
DU146 = experiment: Induction of apoptosis in human […] cells assessed as caspase3/7 cleavage by luminometric assay; format: functional, cell-based
HEK293 [14] = experiment: Induction of apoptosis in HEK293 cells assessed as caspase3/7 cleavage by luminometric assay; format: functional, cell-based; details: Homo sapiens
NIH3T3 [15] = experiment: Effect on Hedgehog signaling in mouse NIH3T3 cells assessed as transactivation of Ras-Raf-Mek-Mapk cascade; format: functional, cell-based
Jurkat [16] = experiment: Inhibition of Gli1 dependent growth of human Jurkat cells at 5 uM; format: functional; design: scale not given: the % may be the effect or the level left
NIH3T3 [17] = experiment: Effect on Hedgehog signaling in mouse NIH3T3 cells assessed as activation of NF kappaB; format: functional, cell-based
[18] = biological target: T1, Zinc finger protein GLI1 (Homo sapiens) (UniProt P08151); experiment: Reduction of GLI1 mediated transcription in HEK293 cells by luciferase reporter assay; format: cell-based
T1 sequence (whole entry): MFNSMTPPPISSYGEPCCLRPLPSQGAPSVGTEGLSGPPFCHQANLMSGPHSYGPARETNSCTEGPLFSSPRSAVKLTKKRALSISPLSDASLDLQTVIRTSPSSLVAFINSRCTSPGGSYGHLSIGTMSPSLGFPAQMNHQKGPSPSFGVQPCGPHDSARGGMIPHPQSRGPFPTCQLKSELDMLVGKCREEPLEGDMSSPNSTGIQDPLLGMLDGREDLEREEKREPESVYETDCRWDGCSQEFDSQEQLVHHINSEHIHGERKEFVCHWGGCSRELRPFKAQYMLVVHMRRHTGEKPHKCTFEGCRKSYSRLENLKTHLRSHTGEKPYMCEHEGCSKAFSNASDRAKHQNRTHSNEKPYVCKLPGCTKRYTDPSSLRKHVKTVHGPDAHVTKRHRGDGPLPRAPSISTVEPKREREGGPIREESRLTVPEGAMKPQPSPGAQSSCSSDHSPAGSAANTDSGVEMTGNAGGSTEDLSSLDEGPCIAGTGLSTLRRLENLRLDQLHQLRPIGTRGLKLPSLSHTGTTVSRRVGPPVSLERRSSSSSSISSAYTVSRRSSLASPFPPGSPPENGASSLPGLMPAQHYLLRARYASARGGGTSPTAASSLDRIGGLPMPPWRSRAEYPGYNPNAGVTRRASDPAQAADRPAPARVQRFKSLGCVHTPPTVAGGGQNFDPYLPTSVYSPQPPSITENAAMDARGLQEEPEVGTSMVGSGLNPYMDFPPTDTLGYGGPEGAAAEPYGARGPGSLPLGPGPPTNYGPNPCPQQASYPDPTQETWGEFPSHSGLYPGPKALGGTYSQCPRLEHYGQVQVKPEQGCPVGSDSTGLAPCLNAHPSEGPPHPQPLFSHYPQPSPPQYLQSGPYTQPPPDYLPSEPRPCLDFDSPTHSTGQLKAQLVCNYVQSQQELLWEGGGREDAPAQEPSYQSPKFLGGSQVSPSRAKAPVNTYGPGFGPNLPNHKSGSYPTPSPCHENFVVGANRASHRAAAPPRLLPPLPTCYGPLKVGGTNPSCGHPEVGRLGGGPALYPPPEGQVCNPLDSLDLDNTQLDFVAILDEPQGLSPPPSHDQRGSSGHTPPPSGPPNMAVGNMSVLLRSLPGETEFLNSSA

PANC-1 [19] = experiment: Reduction in GLI1 expression in human PANC1 cells at 5 uM; format: functional, cell-based
[20] = Reduction in GlI1 expression in human 22Rv cells at 5 uM; format: functional, cell-based
Homo sapiens = experiment: Antitumor activity in GLI1 positive human 22Rv cells xenografted mouse model at 50 mg/kg, sc after 18 days; format: functional, organism-based; design: dose 50 mg/kg
[21] = biological target: T1, Zinc finger protein GLI1 (Homo sapiens); experiment: Inhibition of GLI via PKA activation in HEK293 cells; format: cell-based
NIH3T3 [22] = experiment: Effect on Hedgehog signaling in mouse NIH3T3 cells assessed as activation of TNF signaling; format: functional, cell-based
HEK293 [23] = experiment: Inhibition of nuclear accumulation of wild type GLI in HEK293 cells; format: functional, cell-based; details: Homo sapiens
NIH3T3 [24] = experiment: Induction of apoptosis in mouse NIH3T3 cells assessed as caspase3/7 cleavage by luminometric assay; format: functional, cell-based
NIH3T3 [25] = experiment: Effect on Hedgehog signaling in mouse NIH3T3 cells assessed as transactivation of glucocorticoid receptor; format: functional, cell-based
[26] = Inhibition of Gli1 dependent growth of human 22Rv cells at 5 uM; format: functional; design: scale not given: the % may be the effect or the level left
HepG2 [27] = experiment: Induction of apoptosis in human HepG2 cells assessed as caspase3/7 cleavage by luminometric assay; format: functional, cell-based
[28] = biological target: T2, Zinc finger protein GLI1 (Mus musculus) (UniProt P47806); experiment: Inhibition of GLI1 induced hedgehog signaling in mouse NIH3T3 cells; format: cell-based
T2 sequence (whole entry): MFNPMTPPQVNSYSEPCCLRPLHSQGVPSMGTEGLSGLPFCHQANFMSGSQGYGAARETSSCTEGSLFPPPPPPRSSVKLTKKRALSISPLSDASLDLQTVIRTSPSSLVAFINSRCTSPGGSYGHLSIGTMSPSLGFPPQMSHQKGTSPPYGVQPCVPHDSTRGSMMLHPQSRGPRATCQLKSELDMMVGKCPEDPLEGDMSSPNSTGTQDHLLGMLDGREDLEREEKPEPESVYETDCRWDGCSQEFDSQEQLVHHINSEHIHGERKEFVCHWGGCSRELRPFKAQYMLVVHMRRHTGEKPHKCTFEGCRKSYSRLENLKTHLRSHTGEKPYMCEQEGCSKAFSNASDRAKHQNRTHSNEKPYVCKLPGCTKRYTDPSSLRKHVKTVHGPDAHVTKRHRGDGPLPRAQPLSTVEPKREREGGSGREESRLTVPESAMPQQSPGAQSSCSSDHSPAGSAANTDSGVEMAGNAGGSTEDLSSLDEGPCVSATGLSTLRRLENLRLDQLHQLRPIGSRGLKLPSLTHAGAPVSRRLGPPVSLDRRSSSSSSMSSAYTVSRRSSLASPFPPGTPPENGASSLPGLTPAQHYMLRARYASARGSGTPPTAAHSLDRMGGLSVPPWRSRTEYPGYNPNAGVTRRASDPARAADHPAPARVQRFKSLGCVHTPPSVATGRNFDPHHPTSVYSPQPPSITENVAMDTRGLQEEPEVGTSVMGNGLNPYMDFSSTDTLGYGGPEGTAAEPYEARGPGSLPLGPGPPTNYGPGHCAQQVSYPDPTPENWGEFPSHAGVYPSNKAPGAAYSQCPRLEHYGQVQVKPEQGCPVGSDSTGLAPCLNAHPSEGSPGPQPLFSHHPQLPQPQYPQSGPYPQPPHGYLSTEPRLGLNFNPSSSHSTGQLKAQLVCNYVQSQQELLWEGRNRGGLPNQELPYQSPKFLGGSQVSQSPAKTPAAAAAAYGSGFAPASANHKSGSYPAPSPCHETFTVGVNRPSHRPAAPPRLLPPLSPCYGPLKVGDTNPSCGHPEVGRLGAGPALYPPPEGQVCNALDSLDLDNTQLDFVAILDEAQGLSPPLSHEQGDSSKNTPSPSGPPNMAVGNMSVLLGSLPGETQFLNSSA

[29] = biological target: Zinc finger protein GLI2 (Homo sapiens) (UniProt P10070); experiment: Reduction of GLI2 mediated transcription in HEK293 cells by luciferase reporter assay; format: cell-based
[30] = biological target: T1, Zinc finger protein GLI1 (Homo sapiens); experiment: Alteration in DNA binding to GLI1 in HEK293 cells; format: cell-based
HepG2 [31] = experiment: Inhibition of Gli1 dependent growth of human HepG2 cells at 5 uM; format: functional; design: scale not given: the % may be the effect or the level left
HepG2 [32] = experiment: Cytotoxicity against human HepG2 cells at 10 uM after 48 hrs assessed as reduction in cell viability by MTS assay; format: functional, cell-based
NIH3T3 [33] = experiment: Cytotoxicity against mouse NIH3T3 cells at 10 uM after 48 hrs assessed as reduction in cell viability by MTS assay; format: functional, cell-based
Mus musculus [34] = species on record: Mus musculus; experiment: Antiproliferative activity against mouse embryonic fibroblast at 10 uM assessed as microarray method; format: functional
Mus musculus [35] = species on record: Mus musculus; experiment: Cytotoxicity against wild type mouse embryonic fibroblast at 10 uM after 48 hrs assessed as reduction in cell viability by MTS assay; format: functional

Zinc finger protein GLI2 (Homo sapiens), sequence (P10070 whole entry): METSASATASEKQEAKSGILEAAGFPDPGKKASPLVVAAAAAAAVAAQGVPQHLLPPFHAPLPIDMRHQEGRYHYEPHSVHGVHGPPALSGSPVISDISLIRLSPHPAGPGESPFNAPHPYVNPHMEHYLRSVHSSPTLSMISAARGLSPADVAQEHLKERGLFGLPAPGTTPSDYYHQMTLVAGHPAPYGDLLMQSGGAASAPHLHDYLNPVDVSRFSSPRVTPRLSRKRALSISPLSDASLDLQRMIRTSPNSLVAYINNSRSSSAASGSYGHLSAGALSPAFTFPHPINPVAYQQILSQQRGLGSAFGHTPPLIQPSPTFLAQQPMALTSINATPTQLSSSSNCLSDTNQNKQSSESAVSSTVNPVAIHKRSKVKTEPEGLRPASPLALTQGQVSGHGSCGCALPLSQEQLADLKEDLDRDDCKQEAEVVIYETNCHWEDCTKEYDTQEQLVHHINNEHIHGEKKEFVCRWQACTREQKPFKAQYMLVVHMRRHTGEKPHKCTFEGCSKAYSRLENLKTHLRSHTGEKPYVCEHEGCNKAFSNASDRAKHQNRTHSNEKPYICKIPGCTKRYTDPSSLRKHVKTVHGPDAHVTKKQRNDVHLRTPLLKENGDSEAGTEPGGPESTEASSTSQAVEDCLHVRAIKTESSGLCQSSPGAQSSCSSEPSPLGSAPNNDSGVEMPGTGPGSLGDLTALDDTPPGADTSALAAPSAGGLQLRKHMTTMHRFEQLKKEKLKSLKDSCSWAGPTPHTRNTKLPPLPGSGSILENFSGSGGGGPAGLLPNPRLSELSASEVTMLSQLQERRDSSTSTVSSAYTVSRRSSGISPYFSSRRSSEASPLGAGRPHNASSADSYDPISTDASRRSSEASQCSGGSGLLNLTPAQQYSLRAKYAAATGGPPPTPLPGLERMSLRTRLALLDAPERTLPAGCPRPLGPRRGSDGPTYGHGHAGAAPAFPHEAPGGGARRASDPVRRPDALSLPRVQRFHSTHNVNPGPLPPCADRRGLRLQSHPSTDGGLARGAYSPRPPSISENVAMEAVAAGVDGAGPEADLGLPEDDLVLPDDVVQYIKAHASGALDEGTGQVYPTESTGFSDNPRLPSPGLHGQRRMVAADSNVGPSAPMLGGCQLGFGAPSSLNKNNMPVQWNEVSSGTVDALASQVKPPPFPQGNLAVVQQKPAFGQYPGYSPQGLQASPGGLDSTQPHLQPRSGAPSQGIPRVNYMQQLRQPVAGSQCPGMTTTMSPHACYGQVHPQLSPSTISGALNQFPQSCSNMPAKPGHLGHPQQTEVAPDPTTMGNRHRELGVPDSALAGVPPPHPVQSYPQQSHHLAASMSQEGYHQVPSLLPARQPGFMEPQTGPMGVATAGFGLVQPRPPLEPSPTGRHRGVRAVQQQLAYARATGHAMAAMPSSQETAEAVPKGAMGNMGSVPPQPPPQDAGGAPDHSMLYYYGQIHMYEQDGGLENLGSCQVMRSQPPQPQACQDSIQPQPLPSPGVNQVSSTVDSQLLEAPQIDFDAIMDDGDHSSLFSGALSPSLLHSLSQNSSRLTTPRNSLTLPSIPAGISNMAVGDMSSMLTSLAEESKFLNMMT

Row | SMILES | Activity [1] | Activity [2] [%] | Activity (MEF) | Activity (Mus musculus [3]) | Activity (Mus musculus [4]) | Activity [5] | Activity (HEK293 [6]) | IC50 [7] [µM] | Activity (Jurkat [8]) | Activity (CWR22R) | Activity (PANC-1 [9]) [%] | Activity (PANC-1 [10]) | Activity [11] | Activity (NIH3T3 [12]) | Activity (HEK293 [13]) | Activity (DU146) | Activity (HEK293 [14]) | Activity (NIH3T3 [15]) | Activity (Jurkat [16]) [%] | Activity (NIH3T3 [17]) | further results
1 | CC1=C2C[C@H]3[C@@H](CC=C4C[C@@H](O)CC[C@@]43C)[C@@H]2CC[C@]12O[C@@H]1C[C@H](C)CN[C@H]1[C@H]2C [CYCLOPAMINE] | inactive | 40 | inactive | Active | Active | Active | Active |  |  |  |  |  |  |  |  |  |  |  |  |  | 
2 | c1cc(-c2sc(-c3ccncc3)c(-c3ccncc3)c2-c2ccncc2)ccn1 | Active | 40 | Active | Active | Active | Active | Active | 5 | inactive | inactive | 40 | Active | Active | Active | Active | inactive | inactive | inactive | 0 | inactive | Activity [18]: Active; Activity (PANC-1 [19]): Active; Activity [20]: Active; Activity (Homo sapiens): Active; Activity [21]: inactive; Activity (NIH3T3 [22]): inactive; Activity (HEK293 [23]): Active; Activity (NIH3T3 [24]): inactive; Activity (NIH3T3 [25]): inactive; Activity [26]: 40%; Activity (HepG2 [27]): inactive; Activity [28]: Active; Activity [29]: Active; Activity [30]: inactive; Activity (HepG2 [31]): 0%
3 | CN(C)c1ccccc1CN1CCCN(Cc2ccccc2N(C)C)C1c1ccncc1 | Active | 40 | Active | Active | Active | Active | Active | 5 | inactive | inactive | 40 | Active | Active | Active | Active | inactive | inactive | inactive | 0 | inactive | Activity (HepG2 [32]): inactive; Activity (NIH3T3 [33]): inactive; Activity (Mus musculus [34]): Active; Activity [18]: Active; Activity (PANC-1 [19]): Active; Activity [20]: Active; Activity (Homo sapiens): Active; Activity [21]: inactive; Activity (NIH3T3 [22]): inactive; Activity (HEK293 [23]): Active; Activity (NIH3T3 [24]): inactive; Activity (NIH3T3 [25]): inactive; Activity [26]: 40%; Activity (HepG2 [27]): inactive; Activity [28]: Active; Activity [29]: Active; Activity [30]: inactive; Activity (Mus musculus [35]): inactive; Activity (HepG2 [31]): 0%
